According to patent publication US7202280B2, “Methods for the treatment and prevention of pancreatitis and for induction of liver regeneration” (priority 2002, dated 2007):

Key:
SSAT = SSAT activity in SSAT transgenic rats after polyamine analogues without or with MDL72527; format: in vivo, rat
Procedure: FIGS. 9A–9B. Effect of polyamine analogues without or with MDL72527 on hepatic SSAT (FIG. 9A) and PAO (FIG. 9B) activities in SSAT transgenic rats. The rats were treated with the drugs as described in the legend for FIGS. 8A–8D. There were three to four animals in each group.
The production of transgenic Wistar rats (UKUR30) and mice (UKU181) harboring metallothionein-SSAT fusion gene (Suppola, S., Pietilä, M., Parkkinen, J. J., Korhonen, V. P., Alhonen, L., Halmekytö, M., Porter, C. W., and Jänne, J. (1999) Biochem. J. 338, 311–316) has been described earlier (Alhonen, L., Parkkinen, J. J., Keinänen, T., Sinervirta, R., Herzig, K. H., and Jänne, J. (2000) Proc. Natl. Acad. Sci. U.S.A. 97, 8290–8295; Lukkarinen, J., Gröhn, O., Sinervirta, R., Järvinen, A., Kauppinen, R. A., Jänne, J., and Alhonen, L. (1997) Stroke 28, 639–645). Partial hepatectomy was carried out according to the original method of Higgins and Anderson (Higgins, G. H., and Anderson, R. M. (1931) Arch. Pathol. 12, 186–202). […]
PAO activity was measured to verify the effectiveness of MDL72527 treatment and to determine whether the analogues have any effect on its activity. […]

[1] = system: syngenic and transgenic rats; test: Pancreatic SSAT activity and polyamine pools after zinc and methylspermidine; format: in vivo, rat
Procedure: FIGS. 1a-1d. Pancreatic polyamine pools in syngenic and transgenic rats after zinc and methylspermidine. […] Three to five animals in each group. Me-spd, methylspermidine. The production of transgenic Wistar rats (UKUR30) and mice (UKU181) harboring metallothionein-SSAT fusion gene (Suppola, […]., Porter, C. W., and Jänne, J. (1999) Biochem. […] (2000) Proc. Natl. Acad. Sci. U.S.A. 97, 8290-8295; Lukkarinen, […]., and Alhonen, L. (1997) Stroke 28, 639-645). Partial hepatectomy was carried out according to the original method of Higgins and Anderson (Higgins, G. H., and Anderson, R. M. (1931) Arch. Pathol. 12, 186-202). Treatments before partial hepatectomy and the determination of DNA synthesis were carried out as in ([…]., Suppola, […]., and […]. Biol. Chem. 277, 39867-39872). Transgenic 10 weeks old male rats were injected twice with MDL72527 (50 mg/kg i.p.) at 16-h interval to inactivate PAO according to (Bolkenius, F. N., Bey, P., and Seiler, N. (1985) Biochim. Biophys. […] An aliquot of the homogenates was used for the polyamine assays. The homogenates were centrifuged (at 13 000×g, for 30 min, at 4° C.) and the supernatants were used for the enzyme activity assays. The Institutional Animal Care and Use Committee of the University of Kuopio and by the Provincial Government approved animal experiments. […] Merck (Darmstadt, Germany). […] The changes in pancreatic polyamine pools in response to zinc and methylspermidine are depicted in FIG. 1. […] The various treatments only marginally altered pancreatic putrescine pools (FIG. 1a). […] FIG. 1d depicts the accumulation of the analogue in the pancreas after a single dose or two doses.

| SMILES | hepatic SSAT activity (SSAT; analogue 25 mg/kg i.p. twice) | hepatic SSAT activity (SSAT; analogue combined with MDL72527) | accumulation of the analogue in the pancreas ([1]; single dose or two doses of 50 mg/kg) | SSAT activity, Pancreas ([1]; syngenic rats, zinc 10 mg/kg with methylspermidine 50 mg/kg) | SSAT activity, Pancreas ([1]; transgenic rats, analogue with zinc vs zinc alone) | Pancreatic spermidine pool ([1]; transgenic rats, zinc 10 mg/kg) |
| --- | --- | --- | --- | --- | --- | --- |
| CC(N)CCNCCCCNCCC(C)N (stereo not drawn) [bis-α-methylspermine, 1,12-dimethylspermine] | significantly increased hepatic SSAT activity | further enhanced | – | – | – | – |
| CC(N)CCNCCCCN (stereo not drawn) [α-methylspermidine, 1-methylspermidine] | – | – | effectively accumulated in the pancreas apparently with no further metabolism | did not influence SSAT activity | only slightly increased SSAT activity | little effect on zinc-induced depletion of spermidine |
